These results are taken from patent publication US20220061311A1, “COMPOSITIONS AND METHODS FOR REDUCING CRYOPRESERVATION TOXICITY” (The Regents of the University of Colorado, a body, priority 2018, published 2022).

Assay [1] has as its system ERB3/4. To be noted: cited from earlier work.
The test system of assay [2] is TJ1060 worms. As to the kind of experiment: Survival on Afatinib on agar plates. The class given is in vivo, C. elegans. The note with it: for Mean (survival) / survival (vs no Afatinib control): agar plates. Also noted: Mean (survival): unit not given here. The method, then:
Eggs from TJ1060 were put onto NGM agar plates with varying concentrations of Afatinib at 25° C. On day 3, sterile staged young adult worms were moved to agar plates with Afatinib at 20° C. and followed until all were dead.

Assay [3] relates to Mouse embryonic stem cells (ESCs). As to the kind of experiment: Afatinib pre-treatment of mouse embryonic stem cells before M22 toxicity challenge. The class given is cell-based. The method, then:
Mouse embryonic stem cells (ESCs) were pre-treated with Afatinib in concentrations of 1 nM, 7.5 nM, 15 nM, 30 nM, and 75 nM. The ESCs were then subjected to various concentrations of M22, including a lethal challenge of 6% in normal culture media.

Assay [4] relates to TJ1060 worms. As to the kind of experiment: Worms on 10% M22 +/- Afatinib in liquid survival medium. The class given is in vivo, C. elegans. On the set-up: Mean (survival): unit not given here. The method, then: FIG. 6 is a histogram. Sterile young adult worms (TJ1060) were put into liquid survival medium with 10% M22 and varying concentrations of Afatinib and followed until all were dead. Data from 4 replicate blinded experiments are shown.
Young adult worms from TJ1060 were grown on agar plates at 25° C. with varying concentrations of Afatinib and put into liquid survival medium with 10% M22+/−Afatinib at 20° C. They were followed until all were dead. Data from 4 replicate experiments are shown; experiments were blinded.

In assay [5] the test system is HSBP1 protein. The note with it: Arai et al., Chem. Sci., 2016; cited from earlier work.
In assay [6] the target is MYH9 protein (Homo sapiens, UniProt P35579). The note with it: Chiu et al., Molecular Oncology 6, 2012; cited from earlier work.
Setting [7] is: 10% M22 + Afatinib 10 nM, summary of 4 experiments.
[8] abbreviates: 10% M22 + Afatinib 100 nM, summary of 4 experiments.
Where [9] appears, read: 10% M22 + Afatinib 1000 nM, summary of 4 experiments.

Where “and” joins values, the source holds several entries; their conditions need not be identical. Equal entries are not always repeated. Where two headings read alike, the source gives them in different places.

Chain of MYH9 protein (P35579 whole entry, species assumed): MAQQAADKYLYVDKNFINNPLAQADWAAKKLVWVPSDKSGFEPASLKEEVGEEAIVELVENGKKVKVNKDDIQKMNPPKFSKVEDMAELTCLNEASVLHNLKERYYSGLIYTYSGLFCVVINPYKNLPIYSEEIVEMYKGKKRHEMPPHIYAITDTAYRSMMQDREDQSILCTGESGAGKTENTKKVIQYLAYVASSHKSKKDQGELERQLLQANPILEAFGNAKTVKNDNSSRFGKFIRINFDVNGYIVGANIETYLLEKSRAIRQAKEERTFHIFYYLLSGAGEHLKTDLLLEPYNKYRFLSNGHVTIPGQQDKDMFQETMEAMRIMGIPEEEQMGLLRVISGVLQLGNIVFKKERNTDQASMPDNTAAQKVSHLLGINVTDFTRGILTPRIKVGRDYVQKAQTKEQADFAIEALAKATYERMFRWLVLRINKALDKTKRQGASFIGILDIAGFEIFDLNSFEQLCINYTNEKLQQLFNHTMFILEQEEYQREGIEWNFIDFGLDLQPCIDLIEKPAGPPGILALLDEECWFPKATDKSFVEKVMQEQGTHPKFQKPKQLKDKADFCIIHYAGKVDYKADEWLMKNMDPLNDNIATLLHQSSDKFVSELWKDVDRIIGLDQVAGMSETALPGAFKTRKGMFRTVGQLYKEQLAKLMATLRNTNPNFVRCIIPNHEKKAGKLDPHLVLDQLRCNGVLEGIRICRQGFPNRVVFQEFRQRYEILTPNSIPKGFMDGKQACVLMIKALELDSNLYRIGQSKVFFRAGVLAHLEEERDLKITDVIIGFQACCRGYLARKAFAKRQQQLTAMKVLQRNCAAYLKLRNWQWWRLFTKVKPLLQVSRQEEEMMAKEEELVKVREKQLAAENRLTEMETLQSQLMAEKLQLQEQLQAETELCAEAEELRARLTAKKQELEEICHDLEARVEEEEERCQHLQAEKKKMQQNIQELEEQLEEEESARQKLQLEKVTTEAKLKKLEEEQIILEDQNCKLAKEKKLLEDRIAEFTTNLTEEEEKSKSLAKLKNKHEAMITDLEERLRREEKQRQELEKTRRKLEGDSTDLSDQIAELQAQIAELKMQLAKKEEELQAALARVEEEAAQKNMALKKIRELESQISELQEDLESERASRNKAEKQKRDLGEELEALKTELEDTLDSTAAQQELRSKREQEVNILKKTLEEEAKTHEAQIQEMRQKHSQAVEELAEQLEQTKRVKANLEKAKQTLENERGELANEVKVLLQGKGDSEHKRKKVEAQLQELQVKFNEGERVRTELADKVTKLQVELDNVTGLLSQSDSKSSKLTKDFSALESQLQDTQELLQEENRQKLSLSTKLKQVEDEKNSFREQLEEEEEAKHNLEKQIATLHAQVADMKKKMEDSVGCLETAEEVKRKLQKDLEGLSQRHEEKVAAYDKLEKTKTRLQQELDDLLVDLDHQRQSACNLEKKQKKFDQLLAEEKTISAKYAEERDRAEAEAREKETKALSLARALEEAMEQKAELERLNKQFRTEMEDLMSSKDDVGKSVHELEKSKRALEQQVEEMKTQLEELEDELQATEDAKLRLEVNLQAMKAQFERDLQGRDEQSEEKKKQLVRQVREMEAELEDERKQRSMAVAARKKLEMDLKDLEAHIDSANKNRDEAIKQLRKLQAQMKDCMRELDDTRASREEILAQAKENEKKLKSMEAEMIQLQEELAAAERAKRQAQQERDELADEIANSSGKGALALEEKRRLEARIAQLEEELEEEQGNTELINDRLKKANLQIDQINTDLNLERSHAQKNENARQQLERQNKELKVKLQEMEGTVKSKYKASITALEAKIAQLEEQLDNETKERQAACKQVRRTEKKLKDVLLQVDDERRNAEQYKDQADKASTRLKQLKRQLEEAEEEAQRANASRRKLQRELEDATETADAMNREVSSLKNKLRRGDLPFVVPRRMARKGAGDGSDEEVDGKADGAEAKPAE

A word on the IC50: it is the concentration that inhibits the measured activity by half. Regarding `CN(C)C/C=C/C(=O)Nc1cc2c(Nc3ccc(F)c(Cl)c3)ncnc2cc1O[C@H]1CCOC1` [Afatinib], the IC50 in assay [1] (read-out: IC50) was approximately 1 nM; in assay [1] (read-out: IC50 DOSE), 1 nM. Besides, the “Mean (survival)” value in assay [2] (Afatinib 10 nM, no M22, single experiments) is 20.5 and 19.7 and 19.1 and 22.1; in assay [2] (Afatinib 10 nM, summary), 20.3; in assay [2] (Afatinib 20 nM, no M22, single experiment), 21.1; in assay [2] (Afatinib 100 nM, no M22, single experiments), 19.4 and 21.1 and 19.8 and 21.8; in assay [2] (Afatinib 100 nM, summary), 20.4; in assay [2] (Afatinib 1000 nM, no M22, single experiments) it was 20.8 and 21.7 and 19.4 and 20.0. The “Mean (survival)” value in assay [2] (Afatinib 1000 nM, summary) was 20.6; in assay [4] (10% M22 + Afatinib 10 nM, liquid, 20° C., single experiments), 12.4 and 12.3 and 14.6 and 10.4; in assay [4] (setting [7]), 12.5; in assay [4] (10% M22 + Afatinib 100 nM, liquid, 20° C., single experiments), 13.5 and 13.2 and 15.3 and 11.3; in assay [4] (setting [8]), 13.4; in assay [4] (10% M22 + Afatinib 1000 nM, liquid, 20° C., single experiments) it was 13.2 and 13.0 and 15.6 and 10.3. Further, the “Mean (survival)” value in assay [4] (setting [9]) was found to be 13.0. Also, the “survival (vs no Afatinib control)” value was “less and ns” in assay [2] (Afatinib 10 nM, single experiments); “ns” in assay [2] (Afatinib 10 nM, summary); “ns” in assay [2] (Afatinib 20 nM, single experiment); “less and more and ns” in assay [2] (Afatinib 100 nM, single experiments); “ns” in assay [2] (Afatinib 100 nM, summary); “ns and more and less” in assay [2] (Afatinib 1000 nM, single experiments). In addition, the “survival (vs no Afatinib control)” value in assay [2] (Afatinib 1000 nM, summary) is on record as “less”. Further, the longevity effect result in assay [2] (worms, Afatinib without M22) is given as “did not have a longevity effect”. The “resistance to M22 toxicity” value in assay [3] (ESCs pre-treated with Afatinib 1-75 nM, lower M22 concentrations (FIG. 1)) is listed as “increased resistance to M22 toxicity”. For the same compound, in assay [3] (ESCs pre-treated with Afatinib, 6% M22 in normal culture media (FIG. 1)), the “survival of otherwise lethal M22 challenge” value was “survived an otherwise lethal M22 challenge”. Further, the “survival of cells after cryopreservative toxicity challenge with M22 (FIG. 1)” value in assay [3] (cells treated with Afatinib prior to M22 challenge) is “increased survival”. For the same compound, the “resistance (vs no Afatinib control)” value is “ns and less” in assay [4] (10% M22 + Afatinib 10 nM, single experiments); “ns” in assay [4] (setting [7]); “more and ns” in assay [4] (10% M22 + Afatinib 100 nM, single experiments); “more” in assay [4] (setting [8]); “ns and more” in assay [4] (10% M22 + Afatinib 1000 nM, single experiments); “ns” in assay [4] (setting [9]). Moreover, the entries for the “protection of worms in 10% M22” value in assay [4] (Afatinib 10 or 1000 nm) and in assay [4] (Afatinib concentration of 100 nm) were “not” and “protects worms in 10% M22”, respectively. Further, the “survival in 10% M22 compared with control of no afatinib (FIG. 6)” value in assay [4] (Afatinib at 100 nM, 4 replicate blinded experiments, p<0.001) was “significantly better than control of no afatinib”.
`COc1ccc(-c2cc(=O)c3c(O[C@@H]4O[C@H](CO[C@@H]5OC[C@@H](O)[C@H](O)[C@H]5O)[C@@H](O)[C@H](O)[C@H]4O)cc(OC)cc3o2)cc1` [Agalloside]: the “inhibition of HSBP1 protein” value in assay [5] was “Agalloside inhibits the HSBP1”.
Take `Cc1ccc2c(c1)C(=O)C1(O)CCN(c3ccccc3)C1=N2` (stereo not shown) [Blebbistatin]: the “inhibition of MYH9 protein” value in assay [6] was “Blebbistatin inhibits the MYH9”.
